We go through 5 compounds from patent US4843070A, “Substituted thiazetoquinoline-3-carboxylic acids and pharmaceutically acceptable salts thereof” (priority 1986, dated 1989).

Holding throughout (format): cell-based
One experiment has as its system A. calcoaceticus 54. Nature of the experiment: MIC by agar plate dilution method, A. calcoaceticus 54. Conditions: read-out: minimum inhibitory concentration (MIC). Here is the method:
(§1) Test method: The MIC was measured by an agar plate dilution method in accordance with a standard method of Japan Chemotherapeutic Society (cf. Nippon Kagaku Ryoho Gakkaishi, 29(1), 76-79, 1981). Thus, the organisms incubated at 37° C. for 18 hours using sensitivity test broth (Nissei) was diluted to 10^6 CFU/ml using the same broth. […] As a control, enoxacin and ofloxacin were used in Tests 1 and 2, respectively.
(§2) The numbers of the inoculated bacteria were 10^6 in all cases and the unit of the MIC was micrograms/ml.

The subject of a further experiment is S. flexneri. Briefly: MIC by agar plate dilution method, S. flexneri. The following applies: Shigella flexneri, Test 1, inoculum 10^6, 37° C., 18 hours, read-out: minimum inhibitory concentration (MIC). Here is the method:
as §1, §2

In a further experiment the test system is E. cloacae No. 1. Nature of the experiment: MIC by agar plate dilution method, E. cloacae No. 1. The following applies: Enterobacter cloacae, read-out: minimum inhibitory concentration (MIC). Here is the method: as §1, §2
For a further experiment, the system named is S. aureus 209-P JC. Nature of the experiment: MIC by agar plate dilution method, S. aureus 209-P JC. Conditions: Staphylococcus aureus, read-out: minimum inhibitory concentration (MIC). Here is the method:
as §1, §2

The test system of the next experiment is P. aeruginosa E-2. Nature of the experiment: MIC by agar plate dilution method, P. aeruginosa E-2. Conditions: Pseudomonas aeruginosa, read-out: minimum inhibitory concentration (MIC). Here is the method: as §1, §2
The next experiment has as its system S. aureus Smith. Briefly: MIC by agar plate dilution method, S. aureus Smith. Conditions: Staphylococcus aureus, read-out: minimum inhibitory concentration (MIC). Here is the method:
as §1, §2

A further experiment deals with B. subtilis ATCC 6633. Briefly: MIC by agar plate dilution method, B. subtilis ATCC 6633. Conditions: Bacillus subtilis, read-out: minimum inhibitory concentration (MIC). The method, then: as §1, §2
In the next experiment the test system is P. vulgaris HX-19. Nature of the experiment: MIC by agar plate dilution method, P. vulgaris HX-19. Conditions: Proteus vulgaris, HX19, Test 1, inoculum 10^6, 37° C., 18 hours, read-out: minimum inhibitory concentration (MIC). Here is the method:
as §1, §2

The next experiment has as its system S. marcescens IFO 3736. Nature of the experiment: MIC by agar plate dilution method, S. marcescens IFO 3736. The following applies: Serratia marcescens, read-out: minimum inhibitory concentration (MIC). Here is the method: as §1, §2
For a further experiment, the system named is K. pneumoniae K-1966. Briefly: MIC by agar plate dilution method, K. pneumoniae K-1966. Conditions: Klebsiella pneumoniae, read-out: minimum inhibitory concentration (MIC). The method, then:
as §1, §2

The next experiment deals with E. coli KC-14. Nature of the experiment: MIC by agar plate dilution method, E. coli KC-14. The following applies: Escherichia coli, read-out: minimum inhibitory concentration (MIC). The method, then:
as §1, §2

The next experiment relates to M. luteus ATCC 9341. Briefly: MIC by agar plate dilution method, M. luteus ATCC 9341. The following applies: Micrococcus luteus, read-out: minimum inhibitory concentration (MIC). Here is the method: as §1, §2
The next experiment relates to E. coli NIHJ JC-2. Nature of the experiment: MIC by agar plate dilution method, E. coli NIHJ JC-2. The following applies: Escherichia coli, read-out: minimum inhibitory concentration (MIC). Here is the method: as §1, §2
Setting [1] is: Acinetobacter calcoaceticus, Test 1, A. calcoaceticus 54, inoculum 10^6, 37° C., 18 hours.
Where [2] appears, read: Test 1, E. cloacae No. 1, inoculum 10^6, 37° C., 18 hours.
Setting [3] is: Test 1, S. aureus 209-P JC, inoculum 10^6, 37° C., 18 hours.
The mark [4] stands for this setting: E2, Test 1, P. aeruginosa E-2, inoculum 10^6, 37° C., 18 hours.
The mark [5] stands for this setting: Test 1, S. aureus Smith, inoculum 10^6, 37° C., 18 hours.
Setting [6] is: ATCC6633, Test 1, B. subtilis ATCC 6633, inoculum 10^6, 37° C., 18 hours.
Where [7] appears, read: IFO3736, Test 1, S. marcescens IFO 3736, inoculum 10^6, 37° C., 18 hours.
The mark [8] stands for this setting: K1966, Test 1, K. pneumoniae K-1966, inoculum 10^6, 37° C., 18 hours.
[9] abbreviates: KC14, Test 1, E. coli KC-14, inoculum 10^6, 37° C., 18 hours.
[10] abbreviates: ATCC9341, Test 1, M. luteus ATCC 9341, inoculum 10^6, 37° C., 18 hours.
Where [11] appears, read: NIHJJC2, Test 1, E. coli NIHJ JC-2, inoculum 10^6, 37° C., 18 hours.

≈ marks a conversion by molar mass, not a printed value. Read-outs that look alike come from different tables or passages of the source.

For the compound `CC1Sc2c(C(=O)O)c(=O)c3cc(F)c(N4CCSCC4)cc3n21` (centres unmarked) [(6)], the MIC is 0.2 µg/mL (≈ 0.546 µM) in the experiment with A. calcoaceticus 54 (setting [1]); 0.1 µg/mL (≈ 0.273 µM) with S. flexneri; 0.39 µg/mL (≈ 1.06 µM) in the experiment on E. cloacae No. 1 (setting [2]); 0.05 µg/mL (≈ 0.136 µM) with S. aureus 209-P JC (setting [3]); 0.78 µg/mL (≈ 2.13 µM) in the experiment on P. aeruginosa E-2 (setting [4]); no more than 0.0063 µg/mL with S. aureus Smith (setting [5]). The MIC was no more than 0.0063 µg/mL in the experiment with B. subtilis ATCC 6633 (setting [6]); no more than 0.0063 µg/mL in the experiment with P. vulgaris HX-19; 0.78 µg/mL (≈ 2.13 µM) in the experiment with S. marcescens IFO 3736 (setting [7]); 0.1 µg/mL (≈ 0.273 µM) with K. pneumoniae K-1966 (setting [8]); 0.05 µg/mL (≈ 0.136 µM) in the experiment on E. coli KC-14 (setting [9]); 1.56 µg/mL (≈ 4.26 µM) with M. luteus ATCC 9341 (setting [10]). The MIC in the experiment with E. coli NIHJ JC-2 (setting [11]) turned out to be 0.2 µg/mL (≈ 0.546 µM).

With `CC1Sc2c(C(=O)O)c(=O)c3cc(Cl)c(N4CCNCC4)cc3n21` (centres unmarked) [(7)], the MIC in the experiment on A. calcoaceticus 54 (setting [1]) is 3.13 µg/mL (≈ 8.56 µM); in the experiment on S. flexneri it was 0.0125 µg/mL (≈ 0.0342 µM); with E. cloacae No. 1 (setting [2]), 0.05 µg/mL (≈ 0.137 µM); with S. aureus 209-P JC (setting [3]), 0.1 µg/mL (≈ 0.273 µM); in the experiment with P. aeruginosa E-2 (setting [4]) it was 1.56 µg/mL (≈ 4.26 µM); with S. aureus Smith (setting [5]), 0.2 µg/mL (≈ 0.547 µM). In addition, the MIC in the experiment on B. subtilis ATCC 6633 (setting [6]) was 0.2 µg/mL (≈ 0.547 µM); with P. vulgaris HX-19, 0.025 µg/mL (≈ 0.0683 µM); in the experiment with S. marcescens IFO 3736 (setting [7]), 0.1 µg/mL (≈ 0.273 µM); in the experiment on K. pneumoniae K-1966 (setting [8]), 0.025 µg/mL (≈ 0.0683 µM); in the experiment on E. coli KC-14 (setting [9]), 0.025 µg/mL (≈ 0.0683 µM); in the experiment with M. luteus ATCC 9341 (setting [10]), 1.56 µg/mL (≈ 4.26 µM). The MIC in the experiment with E. coli NIHJ JC-2 (setting [11]) was found to be 0.05 µg/mL (≈ 0.137 µM).

For `CC1Sc2c(C(=O)O)c(=O)c3cc(F)c(N4CCC(N)C4)cc3n21.CCS(=O)(=O)O` (centres unmarked) [Table 1 (8), 6-Fluoro-1-methyl-7-(3-amino-1-pyrrolidinyl)-4-oxo-4H-(1,3)thiazeto(3,2-a)quinoline-3-carboxylic acid ethanesulfonate], the MIC in the experiment with A. calcoaceticus 54 (Acinetobacter calcoaceticus, 54, 18 h) was 0.78 µg/mL; in the experiment with S. flexneri it was no more than 0.0063 µg/mL; in the experiment with E. cloacae No. 1 (NO.1, 18 h), 0.025 µg/mL; in the experiment with S. aureus 209-P JC (209P, 18 h) it was 0.025 µg/mL; in the experiment with P. aeruginosa E-2 (E2, 18 h), 0.1 µg/mL; with S. aureus Smith (18 h), 0.05 µg/mL. The MIC in the experiment on B. subtilis ATCC 6633 (ATCC6633, 18 h) was 0.05 µg/mL; with P. vulgaris HX-19, no more than 0.0063 µg/mL; in the experiment on S. marcescens IFO 3736 (IFO3736, 18 h), 0.1 µg/mL; in the experiment with K. pneumoniae K-1966 (K1966, 18 h), 0.025 µg/mL; in the experiment on E. coli KC-14 (KC14, 18 h) it was no more than 0.0063 µg/mL; in the experiment with M. luteus ATCC 9341 (ATCC9341, 18 h), 0.2 µg/mL. The MIC with E. coli NIHJ JC-2 (NIHJJC2, 18 h) came to 0.05 µg/mL.

In the case of `CC1Sc2c(C(=O)O)c(=O)c3cc(F)c(N4CCN(C)CC4)c(N)c3n21` (centres unmarked) [Table 1 (9), 8-Amino-6-fluoro-1-methyl-7-(4-methyl-1-piperazinyl)-4-oxo-4H-(1,3)thiazeto(3,2-a)quinoline-3-carboxylic acid], the MIC in the experiment with A. calcoaceticus 54 (setting [1]) was 0.78 µg/mL (≈ 2.06 µM); with S. flexneri, 0.05 µg/mL (≈ 0.132 µM); in the experiment on E. cloacae No. 1 (setting [2]), 0.2 µg/mL (≈ 0.529 µM); in the experiment on S. aureus 209-P JC (setting [3]), 0.39 µg/mL (≈ 1.03 µM); in the experiment on P. aeruginosa E-2 (setting [4]), 1.56 µg/mL (≈ 4.12 µM); with S. aureus Smith (setting [5]) it was 0.2 µg/mL (≈ 0.529 µM). The MIC in the experiment on B. subtilis ATCC 6633 (setting [6]) came to 0.2 µg/mL (≈ 0.529 µM); in the experiment with P. vulgaris HX-19 it was 0.025 µg/mL (≈ 0.0661 µM); in the experiment with S. marcescens IFO 3736 (setting [7]) it was 0.39 µg/mL (≈ 1.03 µM); in the experiment with K. pneumoniae K-1966 (setting [8]), 0.1 µg/mL (≈ 0.264 µM); with E. coli KC-14 (setting [9]), 0.05 µg/mL (≈ 0.132 µM); in the experiment with M. luteus ATCC 9341 (setting [10]), 50 µg/mL (≈ 132 µM). Besides, the MIC in the experiment with E. coli NIHJ JC-2 (setting [11]) was determined as 0.1 µg/mL (≈ 0.264 µM).

As for `CC1Sc2c(C(=O)O)c(=O)c3cc(F)c(N4CCN(Cc5ccc(N)cc5)CC4)cc3n21` (centres unmarked) [Table 1 (10), 7-(4-(4-Aminobenzyl)-1-piperazinyl)-6-fluoro-1-methyl-4-oxo-4H-(1,3)thiazeto(3,2-a)quinoline-3-carboxylic acid], the MIC in the experiment with A. calcoaceticus 54 (setting [1]) was 0.39 µg/mL (≈ 0.858 µM); in the experiment on S. flexneri, 0.1 µg/mL (≈ 0.22 µM); with E. cloacae No. 1 (setting [2]) it was 0.39 µg/mL (≈ 0.858 µM); in the experiment on S. aureus 209-P JC (setting [3]), 0.05 µg/mL (≈ 0.11 µM); in the experiment with P. aeruginosa E-2 (setting [4]), 3.13 µg/mL (≈ 6.89 µM); with S. aureus Smith (setting [5]) it was no more than 0.0063 µg/mL. Further, the MIC in the experiment on B. subtilis ATCC 6633 (setting [6]) was no more than 0.0063 µg/mL; in the experiment on P. vulgaris HX-19 it was 0.1 µg/mL (≈ 0.22 µM); in the experiment with S. marcescens IFO 3736 (setting [7]), 0.56 µg/mL (≈ 1.23 µM); with K. pneumoniae K-1966 (setting [8]), 0.2 µg/mL (≈ 0.44 µM); in the experiment with E. coli KC-14 (setting [9]), 0.05 µg/mL (≈ 0.11 µM); with M. luteus ATCC 9341 (setting [10]) it was 0.39 µg/mL (≈ 0.858 µM). For the same compound, in the experiment with E. coli NIHJ JC-2 (setting [11]), the MIC turned out to be 0.2 µg/mL (≈ 0.44 µM).
